{"source": "patent US12540131B2", "about": "(Merck Sharp & Dohme LLC, priority 2019, dated 2026)", "data": [{"biological_target": "GST tagged truncated human mutant G2019S LRRK2 (Homo sapiens (Human), UniProt Q5S007, G2019S)", "sequence (Q5S007 970-2527 G2019S)": "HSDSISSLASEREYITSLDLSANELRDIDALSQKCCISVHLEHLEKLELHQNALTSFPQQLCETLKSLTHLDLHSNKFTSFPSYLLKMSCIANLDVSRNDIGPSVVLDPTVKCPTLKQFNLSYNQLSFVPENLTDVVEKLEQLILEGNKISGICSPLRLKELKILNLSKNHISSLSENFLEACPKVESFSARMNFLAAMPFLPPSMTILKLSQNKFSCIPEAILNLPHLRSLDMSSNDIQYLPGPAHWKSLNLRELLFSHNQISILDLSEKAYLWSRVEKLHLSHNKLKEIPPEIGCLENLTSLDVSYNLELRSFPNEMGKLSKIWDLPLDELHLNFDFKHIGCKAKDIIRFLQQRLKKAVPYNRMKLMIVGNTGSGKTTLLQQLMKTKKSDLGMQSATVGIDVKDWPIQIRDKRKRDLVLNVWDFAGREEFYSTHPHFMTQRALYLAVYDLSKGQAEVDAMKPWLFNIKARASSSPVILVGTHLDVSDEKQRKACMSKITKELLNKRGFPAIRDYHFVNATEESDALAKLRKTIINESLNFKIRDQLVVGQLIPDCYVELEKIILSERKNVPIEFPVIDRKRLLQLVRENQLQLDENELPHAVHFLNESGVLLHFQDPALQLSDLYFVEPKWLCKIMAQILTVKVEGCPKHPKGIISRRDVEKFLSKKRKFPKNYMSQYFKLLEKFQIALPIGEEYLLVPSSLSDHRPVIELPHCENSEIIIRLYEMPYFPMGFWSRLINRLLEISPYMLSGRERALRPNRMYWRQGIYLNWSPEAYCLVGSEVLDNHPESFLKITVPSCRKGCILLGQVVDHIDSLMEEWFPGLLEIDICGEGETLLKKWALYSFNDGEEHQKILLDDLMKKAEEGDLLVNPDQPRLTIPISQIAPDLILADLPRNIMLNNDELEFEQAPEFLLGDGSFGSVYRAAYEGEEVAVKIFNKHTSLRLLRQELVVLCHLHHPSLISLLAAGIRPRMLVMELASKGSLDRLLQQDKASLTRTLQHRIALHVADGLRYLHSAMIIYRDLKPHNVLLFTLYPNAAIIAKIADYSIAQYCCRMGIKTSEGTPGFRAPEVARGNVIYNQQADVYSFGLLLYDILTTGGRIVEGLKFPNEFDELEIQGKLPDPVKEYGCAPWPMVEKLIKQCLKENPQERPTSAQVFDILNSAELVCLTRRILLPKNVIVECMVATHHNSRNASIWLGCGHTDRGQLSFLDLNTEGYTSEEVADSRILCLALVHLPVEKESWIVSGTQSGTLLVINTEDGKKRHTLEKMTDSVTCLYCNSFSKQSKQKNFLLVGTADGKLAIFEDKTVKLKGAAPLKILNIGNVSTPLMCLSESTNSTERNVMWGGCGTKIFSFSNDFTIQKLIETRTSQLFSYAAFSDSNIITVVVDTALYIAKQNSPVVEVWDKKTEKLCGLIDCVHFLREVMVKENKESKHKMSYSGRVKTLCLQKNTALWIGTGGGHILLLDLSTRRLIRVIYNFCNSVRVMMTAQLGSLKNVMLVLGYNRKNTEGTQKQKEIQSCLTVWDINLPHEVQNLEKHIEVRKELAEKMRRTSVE", "assay": "LRRK2 Km ATP LanthaScreen Assay", "assay_type": "biochemical", "settings": "G2019S LRRK2, 134 μM ATP (Km ATP), mean values", "procedure,_shortened": "(§1)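 Enzyme (GST-tagged, truncated) was preincubated with compound for 15 min at RT in 50 mM Tris pH 8.5, 10 mM MgCl2, 0.01% Brij-35, 1 mM EGTA, 2 mM DTT and 0.05 mM orthovanadate. Fluorescein-LRRKtide and 134 μM ATP (Km) were then added for 90 min. EDTA and Tb-anti-pERM antibody stopped the reaction; the TR-FRET 520/495 ratio gave 4-parameter IC50s, reported as mean pIC50.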", "values": [{"molecule": "CC1(Cn2ncc(Nc3ncc4cc(Cl)c([C@@H]5CCN(C6COC6)C[C@H]5F)cc4n3)c2Cl)COC1", "note": "(single isomer, unassigned) [Ex-2.11, (3S,4S) or (3R,4R) 6-chloro-N-{5-chloro-1-[(3-methyloxetan-3-yl)methyl]-1H-pyrazol-4-yl}-7-[3-fluoro-1-(oxetan-3-yl)piperidin-4-yl]quinazolin-2-amine]", "LRRK2 pIC50": 9.10}, {"molecule": "Cc1c(Nc2ncc3cc(Cl)c(C4CCN(C5(C)COC5)CC4)cc3n2)cnn1C12CC(C1)C2", "note": "[Ex-2.22, N-[1-(bicyclo[1.1.1]pentan-1-yl)-5-methyl-1H-pyrazol-4-yl]-6-chloro-7-[1-(3-methyloxetan-3-yl)piperidin-4-yl]quinazolin-2-amine]", "LRRK2 pIC50": ">9.20"}, {"molecule": "COC(C)(C)C12CC(n3cc(Nc4ncc5cc(Cl)c(C6CCN(C7(C)COC7)CC6)cc5n4)cn3)(C1)C2", "note": "[Ex-2.56, 6-chloro-N-{1-[3-(2-methoxypropan-2-yl)bicyclo[1.1.1]pentan-1-yl]-1H-pyrazol-4-yl}-7-[1-(3-methyloxetan-3-yl)piperidin-4-yl]quinazolin-2-amine]", "LRRK2 pIC50": 8.75}, {"molecule": "Clc1cc2cnc(Nc3cnn(CC4CCC4)c3Cl)nc2cc1C1CCN(C2COC2)CC1", "note": "[Ex-4.19, 6-chloro-N-[5-chloro-1-(cyclobutylmethyl)-1H-pyrazol-4-yl]-7-[1-(oxetan-3-yl)piperidin-4-yl]quinazolin-2-amine]", "LRRK2 pIC50": 9.17}, {"molecule": "Cc1c(Nc2ncc3cc(Cl)c(C4CCN([C@@]5(C)COC[C@H]5O)CC4)cc3n2)cnn1C", "note": "(single isomer, unassigned) [Ex-2.65, (3S,4S) or (3R,4R) 4-(4-{6-chloro-2-[(1,5-dimethyl-1H-pyrazol-4-yl)amino]quinazolin-7-yl}piperidin-1-yl)-4-methyloxolan-3-ol]", "LRRK2 pIC50": 7.84}, {"molecule": "Cc1c(Nc2ncc3cc(Cl)c(C4CCN(C[C@H](O)c5cccc(F)c5)CC4)cc3n2)cnn1C1CC1", "note": "[Ex-4.195, (1R)-2-(4-{6-chloro-2-[(1-cyclopropyl-5-methyl-1H-pyrazol-4-yl)amino]quinazolin-7-yl}piperidin-1-yl)-1-(3-fluorophenyl)ethan-1-ol]", "LRRK2 pIC50": 8.24}, {"molecule": "Cc1c(Nc2ncc3cc(Cl)c(C4CCN(C5(C)CCCC5O)CC4)cc3n2)cnn1C1CC1", "note": "(single isomer, unassigned) [Ex-1.20, (1R,2S) or (1S,2R) or (1S,2S) or (1R,2R) 2-(4-(6-chloro-2-((1-cyclopropyl-5-methyl-1H-pyrazol-4-yl)amino)quinazolin-7-yl)piperidin-1-yl)-2-methylcyclopentan-1-ol]", "LRRK2 pIC50": 8.84}, {"molecule": "Cc1cc(Nc2ncc3cc(Cl)c(C4CCN(C5COCC5O)CC4F)cc3n2)n(C)n1", "note": "(single isomer, unassigned) [Ex-4.236, (3S,4S)(3S,4S) or (3S,4S)(3R,4R) or (3R,4R)(3S,4S) or (3R,4R)(3R,4R) 4-(4-{6-chloro-2-[(1,3-dimethyl-1H-pyrazol-5-yl)amino]quinazolin-7-yl}-3-fluoropiperidin-1-yl)oxolan-3-ol]", "LRRK2 pIC50": 6.61}, {"molecule": "Cc1c(Nc2ncc3cc(Cl)c(C4CCN(C5CC[C@H]5O)CC4)cc3n2)cnn1C1CC1", "note": "(single isomer, unassigned) [Ex-1.5, (1R,2S) or (1R,2R) or (1S,2S) or (1S,2R) 2-(4-(6-chloro-2-((1-cyclopropyl-5-methyl-1H-pyrazol-4-yl)amino)quinazolin-7-yl)piperidin-1-yl)cyclobutan-1-ol]", "LRRK2 pIC50": ">9.20"}, {"molecule": "Cc1c(Nc2ncc3cc(Cl)c(C4CCN(C[C@@H](O)c5ccc(F)c(F)c5)CC4)cc3n2)cnn1C1CC1", "note": "[Ex-4.200, (1S)-2-(4-{6-chloro-2-[(1-cyclopropyl-5-methyl-1H-pyrazol-4-yl)amino]quinazolin-7-yl}piperidin-1-yl)-1-(3,4-difluorophenyl)ethan-1-ol]", "LRRK2 pIC50": 8.76}, {"molecule": "Cc1cc2cnc(Nc3cc(C(F)(F)F)nn3C)nc2cc1C1CCN([C@]2(C)COC[C@@H]2O)CC1", "note": "(single isomer, unassigned) [Ex-5.15, (3S,4S) or (3R,4R) 4-methyl-4-[4-(6-methyl-2-{[1-methyl-3-(trifluoromethyl)-1H-pyrazol-5-yl]amino}quinazolin-7-yl)piperidin-1-yl]oxolan-3-ol]", "LRRK2 pIC50": 8.42}, {"molecule": "Clc1cc2cnc(Nc3cnn(C4COC4)c3Cl)nc2cc1C1CCN(C2COC2)CC1", "note": "[Ex-4.17, 6-chloro-N-[5-chloro-1-(oxetan-3-yl)-1H-pyrazol-4-yl]-7-[1-(oxetan-3-yl)piperidin-4-yl]quinazolin-2-amine]", "LRRK2 pIC50": ">9.20"}, {"molecule": "Cc1c(Nc2ncc3cc(Cl)c(C4CCN(C5CCC(CC#N)C5)CC4)cc3n2)cnn1C1CC1", "note": "(single isomer, unassigned) [Ex-4.171, (1R,3R) or (1S,3R) or (1R,3S) or (1S,3S) [3-(4-{6-chloro-2-[(1-cyclopropyl-5-methyl-1H-pyrazol-4-yl)amino]quinazolin-7-yl}piperidin-1-yl)cyclopentyl]acetonitrile]", "LRRK2 pIC50": 8.51}, {"molecule": "Cc1c(Nc2ncc3cc(Cl)c(C4CCN([C@H]5COC[C@H]5O)CC4)cc3n2)cnn1C1CC1(F)F", "note": "(single isomer, unassigned) [Ex-4.183, (R)(3S,4S) or (S)(3S,4S) or (R)(3R,4R) or (S)(3R,4R) 4-[4-(6-chloro-2-{[1-(2,2-difluorocyclopropyl)-5-methyl-1H-pyrazol-4-yl]amino}quinazolin-7-yl)piperidin-1-yl]oxolan-3-ol]", "LRRK2 pIC50": ">9.20"}, {"molecule": "Cc1c(Nc2ncc3cc(Cl)c([C@@H]4CCN([C@@H]5COC[C@@H]5O)C[C@H]4F)cc3n2)cnn1C", "note": "(single isomer, unassigned) [Ex-4.255, (3S,4S)(3S,4S) or (3S,4S)(3R,4R) or (3R,4R)(3S,4S) or (3R,4R)(3R,4R) 4-(4-(6-chloro-2-((1,5-dimethyl-1H-pyrazol-4-yl)amino)quinazolin-7-yl)-3-fluoropiperidin-1-yl)tetrahydrofuran-3-ol]", "LRRK2 pIC50": ">9.20"}, {"molecule": "Cn1ncc(Nc2ncc3cc(Cl)c([C@@H]4CCN([C@@]5(C)COC[C@H]5O)C[C@H]4F)cc3n2)c1Cl", "note": "(single isomer, unassigned) [Ex-4.234, (3S,4S)(3S,4S) or (3S,4S)(3R,4R) or (3R,4R)(3S,4S) or (3R,4R)(3R,4R) 4-(4-{6-chloro-2-[(5-chloro-1-methyl-1H-pyrazol-4-yl)amino]quinazolin-7-yl}-3-fluoropiperidin-1-yl)-4-methyloxolan-3-ol]", "LRRK2 pIC50": 7.23}]}, {"biological_target": "GST tagged truncated human mutant G2019S LRRK2 (Homo sapiens (Human), UniProt Q5S007, G2019S)", "assay": "LRRK2 Km ATP LanthaScreen Assay", "assay_type": "biochemical", "settings": "G2019S LRRK2, 134 μM ATP (Km ATP), mean values; read-out: LRRK2 pIC50 (converted)", "procedure,_shortened": "as §1", "units": {"IC50": "nM"}, "values": [{"molecule": "Cc1c(Nc2ncc3cc(Cl)c(C4CCN(C5(C)COC5)CC4)cc3n2)cnn1C1CCOC1", "note": "(single isomer, unassigned) [Ex-2.26, (S) or (R) 6-chloro-7-[1-(3-methyloxetan-3-yl)piperidin-4-yl]-N-[5-methyl-1-(oxolan-3-yl)-1H-pyrazol-4-yl]quinazolin-2-amine]", "IC50": "< 0.631"}, {"molecule": "Cc1c(Nc2ncc3cc(Cl)c(C4CCN(CC(O)Cc5ccccc5)CC4)cc3n2)cnn1C1CC1", "note": "(single isomer, unassigned) [Ex-4.219, (S) or (R) 1-(4-{6-chloro-2-[(1-cyclopropyl-5-methyl-1H-pyrazol-4-yl)amino]quinazolin-7-yl}piperidin-1-yl)-3-phenylpropan-2-ol]", "IC50": 4.68}, {"molecule": "Cc1c(Nc2ncc3cc(Cl)c(C4CCN(C5COC(C)(C)C5)CC4)cc3n2)cnn1C1CC1", "note": "(single isomer, unassigned) [Ex-4.173, (R) or (S) 6-chloro-N-(1-cyclopropyl-5-methyl-1H-pyrazol-4-yl)-7-[1-(5,5-dimethyloxolan-3-yl)piperidin-4-yl]quinazolin-2-amine]", "IC50": 3.72}, {"molecule": "CC(C)(O)Cn1ncc(Nc2ncc3cc(Cl)c(C4CCN(C5CCOC5)CC4)cc3n2)c1Cl", "note": "(single isomer, unassigned) [Ex-4.79, (S) or (R) 1-[5-chloro-4-({6-chloro-7-[1-(oxolan-3-yl)piperidin-4-yl]quinazolin-2-yl}amino)-1H-pyrazol-1-yl]-2-methylpropan-2-ol]", "IC50": "< 0.631"}, {"molecule": "CC1(n2ncc(Nc3ncc4cc(Cl)c(C5CCN(C6COC6)C5)cc4n3)c2Cl)CC1", "note": "(single isomer, unassigned) [Ex-4.25, (S) or (R) 6-chloro-N-[5-chloro-1-(1-methylcyclopropyl)-1H-pyrazol-4-yl]-7-[1-(oxetan-3-yl)pyrrolidin-3-yl]quinazolin-2-amine]", "IC50": 3.09}, {"molecule": "Cc1nsc(Nc2ncc3cc(Cl)c(C4CCN(C5CCOC5)CC4)cc3n2)c1Cl", "note": "(single isomer, unassigned) [Ex-8.18, (S) or (R) 6-chloro-N-(4-chloro-3-methyl-1,2-thiazol-5-yl)-7-[1-(oxolan-3-yl)piperidin-4-yl]quinazolin-2-amine]", "IC50": "< 0.631"}, {"molecule": "Cc1nsc(Nc2ncc3cc(Cl)c([C@@H]4CCN(C5COC5)C[C@H]4F)cc3n2)c1Cl", "note": "(single isomer, unassigned) [Ex-4.87, (3S,4S) or (3R,4R) 6-chloro-N-(4-chloro-3-methyl-1,2-thiazol-5-yl)-7-[3-fluoro-1-(oxetan-3-yl)piperidin-4-yl]quinazolin-2-amine]", "IC50": 12.6}, {"molecule": "C[C@]1(N2CCC(c3cc4nc(Nc5cnn(C67CC(C6)C7)c5)ncc4cc3Cl)CC2)COC[C@H]1O", "note": "(single isomer, unassigned) [Ex-2.35, (3S,4S) or (3R,4R) 4-[4-(2-{[1-(bicyclo[1.1.1]pentan-1-yl)-1H-pyrazol-4-yl]amino}-6-chloroquinazolin-7-yl)piperidin-1-yl]-4-methyloxolan-3-ol]", "IC50": 3.89}]}]}
